Source: patent US6632832B1 (Dabur Research Foundation, priority 2002, dated 2003)
Converted amounts (≈) assume the structure as drawn.

Tests used:
Assay in all cases: MTT cytotoxicity assay, 72 hours
Type in all cases: cell-based, human
U87.MG (glioblastoma) = conditions: U87MG (Glioblastoma), 72 h MTT, Table 2
Method: (§1) After 72 hours, the assay was terminated and percent cyotoxicities calculated.

PTC (colon) = conditions: PTC (Colon), 72 h MTT, Table 2
Method: as §1

B16F10 (melanoma) = conditions: B16.F10 (Melanoma), 72 h MTT, Table 2
Method: as §1

MiaPaCa.2 (pancreas) = conditions: MiaPaCa.2 (Pancreas), 72 h MTT, Table 2
Method: as §1

KB (oral) = conditions: KB (Oral), 72 h MTT, Table 2
Method: as §1

PA1 (ovary) = conditions: PA-1 (Ovary), 72 h MTT, Table 2
Method: as §1

HBL100 (breast) = conditions: HBL100 (Breast), 72 h MTT, Table 2
Method: as §1

MOLT4 (leukemia) = conditions: MOLT-4 (Leukemia), 72 h MTT, Table 2
Method: as §1

L132 (lung) = conditions: L132 (Lung), 72 h MTT, Table 2
Method: as §1

SMILES	ED50 (U87.MG (glioblastoma)) [µg/mL]	ED50 (PTC (colon)) [µg/mL]	ED50 (B16F10 (melanoma)) [µg/mL]	ED50 (MiaPaCa.2 (pancreas)) [µg/mL]	ED50 (KB (oral)) [µg/mL]	ED50 (PA1 (ovary)) [µg/mL]	ED50 (HBL100 (breast)) [µg/mL]	ED50 (MOLT4 (leukemia)) [µg/mL]	ED50 (L132 (lung)) [µg/mL]
COc1ccccc1OCCNC[C@H](O)COc1cccc2[nH]c3ccccc3c12 (single isomer, unassigned) [S(−) isomer]	18.5 ± 2.1 (≈ 45.5 µM)	7.5 ± 0.4 (≈ 18.5 µM)	11.4 ± 2.1 (≈ 28 µM)	33.0 ± 3.9 (≈ 81.2 µM)	19.0 ± 3.4 (≈ 46.7 µM)	13.0 ± 1.3 (≈ 32 µM)	33.5 ± 4.2 (≈ 82.4 µM)	17.0 ± 2.5 (≈ 41.8 µM)	22.6 ± 3.8 (≈ 55.6 µM)
COc1ccccc1OCCNC[C@@H](O)COc1cccc2[nH]c3ccccc3c12 (single isomer, unassigned) [R(+) isomer]	14.5 ± 2.9 (≈ 35.7 µM)	7.0 ± 0.4 (≈ 17.2 µM)	10.5 ± 1.6 (≈ 25.8 µM)	27.0 ± 2.7 (≈ 66.4 µM)	12.0 ± 2.6 (≈ 29.5 µM)	10.0 ± 1.5 (≈ 24.6 µM)	32.8 ± 3.7 (≈ 80.7 µM)	12.0 ± 1.6 (≈ 29.5 µM)	16.0 ± 3.1 (≈ 39.4 µM)
